The target in one data set is PLA2 (Apis mellifera, UniProt P00630). To be noted: pH 8.
Data set [1] deals with Clostridium perfringens PLC (Clostridium perfringens, UniProt P0C216).
For data set [2] the following is noted: literature values (Cevc 1993; Adrian et al. 1992); cited from earlier work.
A further data set deals with PLA2 from bee venom (Apis mellifera, UniProt P00630).
PLA2 from bee venom, sequence (P00630 34-167 limits assumed): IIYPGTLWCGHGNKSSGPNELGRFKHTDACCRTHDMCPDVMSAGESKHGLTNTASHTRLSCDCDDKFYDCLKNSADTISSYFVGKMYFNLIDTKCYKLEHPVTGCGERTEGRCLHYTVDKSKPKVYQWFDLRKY

PLA2, sequence (P00630 34-167 limits assumed): as above
Clostridium perfringens PLC, sequence (P0C216 29-398 limits assumed): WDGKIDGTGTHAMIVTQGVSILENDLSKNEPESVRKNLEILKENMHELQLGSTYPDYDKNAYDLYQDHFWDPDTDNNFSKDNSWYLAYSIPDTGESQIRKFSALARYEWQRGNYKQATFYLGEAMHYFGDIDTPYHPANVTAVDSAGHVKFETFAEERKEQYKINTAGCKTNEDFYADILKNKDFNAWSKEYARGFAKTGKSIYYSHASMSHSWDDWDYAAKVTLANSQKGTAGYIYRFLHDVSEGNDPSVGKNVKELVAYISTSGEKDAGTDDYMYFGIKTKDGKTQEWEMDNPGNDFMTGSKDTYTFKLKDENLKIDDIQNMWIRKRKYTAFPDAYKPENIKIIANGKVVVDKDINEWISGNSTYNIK

As to “1,2-dimyristoyl-sn-glycero-3-phosphoethanolamine-N-(Oregon Green 500, 5-isomer) [compound 84]”, at PLA2, the “time until all substrate converted to polar product” value is recorded as “about 30 min”.
Take “1,2-dioleoyl-sn-glycero-3-phosphoethanolamine-N-(Oregon Green® 488, 5-isomer) [compound 60]”: the cleavage activity result in data set [1] was “no activity was observed”.
With `CCCCCCCCCCCCCC(=O)OC[C@H](COP(=O)([O-])OCC[N+](C)(C)C)OC(=O)CCCCCCCCCCCCC` [DMPC], the CMC result in data set [2] is listed as “about 4 nM”.
Consider `CCCCCCCCCCCCCC(=O)OC[C@H](COP(=O)(O)OC[C@H](N)C(=O)O)OC(=O)CCCCCCCCCCCCC` [DMPS], for which the CMC result in data set [2] is “about 60 nM”.
In the case of `CCCCCCCCCCCCCCCCOCC(COCC(F)(F)F)OP(=O)(O)OC` (centres unmarked) [inhibitor 122], the IC50 (commonly the concentration needed to halve the response being measured) against PLA2 from bee venom was roughly 2000 nM.

The record behind these values is US20050026235A1 (priority 2003, published 2005).
